We go through 17 compounds from US10849907B2, “Imidazopyridine derivatives and the use thereof as medicament” (Boehringer Ingelheim International GmbH, priority 2017, dated 2020).

The nature of data set [1]: Metabolic stability in pooled human liver microsomes. It is filed as in vitro ADME. Conditions: pH 7.6; pooled human liver microsomes 1 mg/mL, 1 μM compound, 37° C., NADPH; read-out: Half-life - t½ human liver microsomes. An excerpt:
Stability in human liver microsomes refers to the susceptibility of compounds to biotransformation in the context of selecting and/or designing drugs with favorable pharmacokinetic properties. The primary site of metabolism for many drugs is the liver. Human liver microsomes contain the cytochrome P450s (CYPs), and thus represent a model system for studying drug metabolization in vitro. Enhanced stability in human liver microsomes is associated with several advantages, including increased bioavailability and adequate half-life, which can enable lower and less frequent dosing of patients. Thus, enhanced stability in human liver microsomes is a favorable characteristic for compounds that are to be used for drugs.
The metabolic degradation of the test compound was assayed at 37° C. with pooled human liver microsomes. The final incubation volume of 60 μl per time point contains TRIS buffer pH 7.6 at room temperature (0.1 M), magnesium chloride (5 mM aqueous solution), microsomal protein (1 mg/mL for human) and the test compound at a final concentration of 1 μM. Following a short preincubation period at 37° C., the reactions were initiated by addition of betanicotinamide adenine dinucleotide phosphate, reduced form (NADPH, 1 mM), and terminated by transferring an aliquot into solvent after different time points. After centrifugation (10000 g, 5 min), an aliquot of the supernatant was assayed by LC-MS/MS for the amount of parent compound. The half-life was determined by the slope of the semi-logarithmic plot of the concentration-time profile.
On the technique in general: Liver microsomes are a subcellular fraction often used to study metabolism.

In another data set the target is T1, human MDR1 (P-gp) (Homo sapiens, UniProt P08183).
T1 construct: expressed in transfected cells; host or cells: MDCKII (Madin-Darby canine kidney) cells
The experiment in a line: MDCK assay MDR-1 (p-GP): permeability across MDCK-MDR1 monolayers. Particulars: for Papp A→B: MDCK-MDR1 monolayers, apical-to-basal, pH 7.4, 1 or 10 μM; for efflux ratio: pH 7.4, MDCK-MDR1, Papp (b-a) divided by Papp (a-b). In kind it is in vitro ADME. Here is the method:
The MDCK assays provide information on the potential of a compound to pass the blood brain barrier. Permeability measurements across polarized, confluent MDCK-MDR1 cell monolayers grown on permeable filter supports are used as an in vitro absorption model: apparent permeability coefficients (PE) of the compounds across the MDCK-MDR1 cell monolayers are measured (pH 7.4, 37° C.) in apical-to-basal (AB) and basal-to-apical (BA) transport direction. The AB permeability (PEAB) represents drug absorption from the blood into the brain and the BA permeability (PEBA) drug efflux from the brain back into the blood via both, passive permeability as well as active transport mechanisms mediated by efflux and uptake transporters that are expressed on the MDCK-MDR1 cells, predominantly by the overexpressed human MDR1. Identical or similar permeabilities in both transport directions indicate passive permeation, vectorial permeability points to additional active transport mechanisms. Higher PEBA than PEAB (PEBA/PEAB >5) indicates the involvement of active efflux mediated by MDR1, which might compromise the goal to achieve sufficient brain exposure. Therefore, this assay provides valuable support for selection of compounds applicable for further in vivo testing. High permeability not limited by efflux at the blood brain barrier is a favourable characteristic for compounds that are to be used for drugs acting primarily in the CNS. Similar concepts are applicable to the MDCK BCRP assay and its interpretation; consequently, to ensure high permeability at the blood brain barrier, it is highly preferred to minimize the efflux (efflux <5) at both MDR1 and BCRP transporters.
Apparent permeability coefficients (Papp) of the compounds across the MDCK-MDR1 monolayers (MDCKII cells transfected with human MDR1 cDNA expression plasmid) are measured in apical-to-basal (AB) and basal-to-apical (BA) direction.
MDCK-MDR1 cells (6×10^5 cells/cm^2) are seeded on filter inserts (Corning, Transwell, polycarbonate, 0.4 μm pore size) and cultured for 9 to 10 days. Compounds dissolved in DMSO stock solution (1-20 mM) are diluted with HTP-4 aqueous buffer (128.13 mM NaCl, 5.36 mM KCl, 1 mM MgSO4, 1.8 mM CaCl2, 4.17 mM NaHCO3, 1.19 mM Na2HPO4, 0.41 mM NaH2PO4, 15 mM HEPES, 20 mM glucose, pH 7.4) supplemented with 0.25% BSA to prepare the transport solutions (final concentration: 1 or 10 μM, final DMSO <=0.5%). The transport solution is applied to the apical or basolateral donor side for measuring A-B or B-A permeability, respectively. The receiver side contains HTP-4 buffer supplemented with 0.25% BSA. Samples are collected at the start and end of experiment from the donor and at various time intervals for up to 2 hours also from the receiver side for concentration measurement by HPLC-MS/MS. Sampled receiver volumes are replaced with fresh receiver solution. Efflux ratio is calculated dividing the Papp (b-a) values by the Papp (a-b) values.

Bounds are passed on as bounds.

T1 sequence (P08183 whole entry): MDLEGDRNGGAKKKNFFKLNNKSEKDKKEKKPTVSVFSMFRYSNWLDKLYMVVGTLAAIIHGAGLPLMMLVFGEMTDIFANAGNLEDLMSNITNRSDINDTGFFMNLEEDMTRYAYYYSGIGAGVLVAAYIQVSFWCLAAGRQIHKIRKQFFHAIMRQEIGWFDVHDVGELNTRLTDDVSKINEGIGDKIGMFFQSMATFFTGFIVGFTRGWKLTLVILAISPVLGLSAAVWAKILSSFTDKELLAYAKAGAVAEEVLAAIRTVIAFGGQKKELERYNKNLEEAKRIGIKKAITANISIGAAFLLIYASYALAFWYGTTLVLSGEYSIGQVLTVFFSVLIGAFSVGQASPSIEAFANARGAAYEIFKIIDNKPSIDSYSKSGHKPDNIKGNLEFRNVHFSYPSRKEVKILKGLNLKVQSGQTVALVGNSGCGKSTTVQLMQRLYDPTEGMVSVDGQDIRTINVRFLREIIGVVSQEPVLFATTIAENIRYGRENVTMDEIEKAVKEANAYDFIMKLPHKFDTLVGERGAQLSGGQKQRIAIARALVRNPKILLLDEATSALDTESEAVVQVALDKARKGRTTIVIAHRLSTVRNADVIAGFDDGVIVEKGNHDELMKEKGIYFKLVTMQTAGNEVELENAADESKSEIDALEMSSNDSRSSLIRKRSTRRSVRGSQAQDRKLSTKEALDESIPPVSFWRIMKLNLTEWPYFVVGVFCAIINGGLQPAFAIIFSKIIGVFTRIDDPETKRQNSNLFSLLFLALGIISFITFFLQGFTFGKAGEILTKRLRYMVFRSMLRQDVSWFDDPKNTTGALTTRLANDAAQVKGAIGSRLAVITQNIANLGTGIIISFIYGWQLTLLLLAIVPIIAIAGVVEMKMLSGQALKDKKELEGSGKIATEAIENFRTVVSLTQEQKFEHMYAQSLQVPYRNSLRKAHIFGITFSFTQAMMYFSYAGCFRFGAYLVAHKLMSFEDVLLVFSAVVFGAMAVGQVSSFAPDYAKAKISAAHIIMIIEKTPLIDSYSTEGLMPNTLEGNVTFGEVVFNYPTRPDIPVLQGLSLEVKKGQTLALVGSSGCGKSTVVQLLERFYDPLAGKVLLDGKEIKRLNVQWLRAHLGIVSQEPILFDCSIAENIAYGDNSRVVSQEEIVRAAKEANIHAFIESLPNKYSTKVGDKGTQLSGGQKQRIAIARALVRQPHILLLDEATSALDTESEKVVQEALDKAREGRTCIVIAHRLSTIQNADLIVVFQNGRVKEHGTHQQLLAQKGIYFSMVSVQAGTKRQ

Take `O=C(OCc1cccc(F)c1)N1CCO[C@H](c2nc3cccnc3[nH]2)C1` [Example 1]: the half-life (as a rule, how long it takes for the measured level to halve) at 1 µM in data set [1] stood at 38 min. Further, at human MDR1 (P-gp), the Papp A→B (as a rule, how fast a substance crosses the layer from the apical side) is 61 ×10⁻⁶ cm/s and the efflux ratio (in general, the permeability from basolateral to apical divided by that in the opposite direction, in the common usage) came to 0.9.
As for `O=C(OCc1ccc(F)cc1)N1CCO[C@H](c2nc3cccnc3[nH]2)C1` [Example 2], the half-life at 1 µM in data set [1] amounted to 76 min. At human MDR1 (P-gp), the apparent permeability from apical to basolateral (Papp A→B) worked out at 31.5 ×10⁻⁶ cm/s and the efflux ratio came to 1.7.
For `Cc1ccccc1COC(=O)N1CCO[C@H](c2nc3cccnc3[nH]2)C1` [Example 8], the half-life at 1 µM in data set [1] is 14 min. At human MDR1 (P-gp), the Papp A→B was 39 ×10⁻⁶ cm/s and the efflux ratio is 1.6.
Take `Cc1cccc(F)c1COC(=O)N1CCO[C@H](c2nc3cccnc3[nH]2)C1` [Example 10]: the half-life at 1 µM in data set [1] was 12 min. Further, on human MDR1 (P-gp), the apical-to-basolateral permeability (Papp A→B) was 37 ×10⁻⁶ cm/s and the efflux ratio was 1.6.
As to `Cc1ccc(COC(=O)N2CCO[C@H](c3nc4cccnc4[nH]3)C2)c(F)c1` [Example 11], the half-life at 1 µM in data set [1] is 24 min. On human MDR1 (P-gp), the Papp A→B was determined as 32 ×10⁻⁶ cm/s and the efflux ratio is 1.4.
`Cc1ccc(COC(=O)N2CCO[C@H](c3nc4cccnc4[nH]3)C2)cc1F` [Example 12]: the half-life at 1 µM in data set [1] was 36 min. Also, on human MDR1 (P-gp), the apical-to-basolateral permeability (Papp A→B) was 46 ×10⁻⁶ cm/s and the efflux ratio is 0.9.
Take `O=C(OCc1ccc(F)cc1Cl)N1CCO[C@H](c2nc3cccnc3[nH]2)C1` [Example 13]: the half-life at 1 µM in data set [1] came to 37 min. Moreover, on human MDR1 (P-gp), the apical-to-basolateral permeability (Papp A→B) came out at 35 ×10⁻⁶ cm/s and the efflux ratio stood at 1.3.
For `O=C(OCc1ccccc1Cl)N1CCO[C@H](c2nc3cccnc3[nH]2)C1` [Example 14], the half-life at 1 µM in data set [1] amounted to 27 min. Moreover, at human MDR1 (P-gp), the Papp A→B was determined as 38 ×10⁻⁶ cm/s and the efflux ratio was 1.1.
For `O=C(OCc1cccc(F)c1F)N1CCO[C@H](c2nc3cccnc3[nH]2)C1` [Example 15], in data set [1], the half-life at 1 µM was found to be 86 min. Also, at human MDR1 (P-gp), the Papp A→B was determined as 59 ×10⁻⁶ cm/s and the efflux ratio came to 1.2.
`O=C(OCc1c(F)cccc1F)N1CCO[C@H](c2nc3cccnc3[nH]2)C1` [Example 16]: in data set [1], the half-life at 1 µM was greater than 130 min. Moreover, at human MDR1 (P-gp), the Papp A→B was 41 ×10⁻⁶ cm/s and the efflux ratio amounted to 1.2.
Regarding `O=C(OCc1ccccc1)N1CCO[C@H](c2nc3cccnc3[nH]2)C1` [Example 17], the half-life at 1 µM in data set [1] was greater than 130 min. Also, on human MDR1 (P-gp), the Papp A→B was 40 ×10⁻⁶ cm/s and the efflux ratio is 1.3.
Take `Cc1ccc(COC(=O)N2CCO[C@H](c3nc4cccnc4[nH]3)C2)cc1` [Example 18]: in data set [1], the half-life at 1 µM turned out to be 51 min. Moreover, at human MDR1 (P-gp), the Papp A→B is 37 ×10⁻⁶ cm/s and the efflux ratio came out at 1.3.
As for `O=C(OCc1ccc(F)cc1F)N1CCO[C@H](c2nc3cccnc3[nH]2)C1` [Example 19], the half-life at 1 µM in data set [1] came out at 130 min. Moreover, on human MDR1 (P-gp), the apical-to-basolateral permeability (Papp A→B) amounted to 42 ×10⁻⁶ cm/s and the efflux ratio came to 1.6.
In the same order, the values of `O=C(OCc1ccc(C(F)F)cc1)N1CCO[C@H](c2nc3cccnc3[nH]2)C1` [Example 26] are greater than 130 min, 32 ×10⁻⁶ cm/s and 2.
With `O=C(OCc1ccccc1F)N1CCO[C@H](c2nc3cccnc3[nH]2)C1` [Example 27], the half-life at 1 µM in data set [1] was found to be 130 min. At human MDR1 (P-gp), the Papp A→B was 65 ×10⁻⁶ cm/s and the efflux ratio worked out at 1.2.
In the same order, the values of `O=C(OCc1ccc(Cl)cc1)N1CCO[C@H](c2nc3cccnc3[nH]2)C1` [Example 28] are greater than 130 min, 42 ×10⁻⁶ cm/s and 1.1.
On to `Cc1ccc(COC(=O)N2CCO[C@H](c3nc4cc(F)cnc4[nH]3)C2)cc1` [Example 31], for which the half-life at 1 µM in data set [1] was found to be 16 min. At human MDR1 (P-gp), the apical-to-basolateral permeability (Papp A→B) was determined as 18 ×10⁻⁶ cm/s and the efflux ratio came to 1.8.
